Assay results as given in ChEMBL document CHEMBL4406855, “Design, synthesis and biological evaluation of N-(3-(1H-tetrazol-1-yl)phenyl)isonicotinamide derivatives as novel xanthine oxidase inhibitors” (Eur J Med Chem, 2019).

Molecular target: Xanthine dehydrogenase/oxidase (Bos taurus, UniProt P80457)
Assay: Inhibition of bovine xanthine oxidase assessed as reduction in uric acid formation using xanthine as substrate preincubated for 10 mins followed by substrate addition measured at first 2 mins by spectrophotometric analysis

Chain of Xanthine dehydrogenase/oxidase (P80457 whole entry): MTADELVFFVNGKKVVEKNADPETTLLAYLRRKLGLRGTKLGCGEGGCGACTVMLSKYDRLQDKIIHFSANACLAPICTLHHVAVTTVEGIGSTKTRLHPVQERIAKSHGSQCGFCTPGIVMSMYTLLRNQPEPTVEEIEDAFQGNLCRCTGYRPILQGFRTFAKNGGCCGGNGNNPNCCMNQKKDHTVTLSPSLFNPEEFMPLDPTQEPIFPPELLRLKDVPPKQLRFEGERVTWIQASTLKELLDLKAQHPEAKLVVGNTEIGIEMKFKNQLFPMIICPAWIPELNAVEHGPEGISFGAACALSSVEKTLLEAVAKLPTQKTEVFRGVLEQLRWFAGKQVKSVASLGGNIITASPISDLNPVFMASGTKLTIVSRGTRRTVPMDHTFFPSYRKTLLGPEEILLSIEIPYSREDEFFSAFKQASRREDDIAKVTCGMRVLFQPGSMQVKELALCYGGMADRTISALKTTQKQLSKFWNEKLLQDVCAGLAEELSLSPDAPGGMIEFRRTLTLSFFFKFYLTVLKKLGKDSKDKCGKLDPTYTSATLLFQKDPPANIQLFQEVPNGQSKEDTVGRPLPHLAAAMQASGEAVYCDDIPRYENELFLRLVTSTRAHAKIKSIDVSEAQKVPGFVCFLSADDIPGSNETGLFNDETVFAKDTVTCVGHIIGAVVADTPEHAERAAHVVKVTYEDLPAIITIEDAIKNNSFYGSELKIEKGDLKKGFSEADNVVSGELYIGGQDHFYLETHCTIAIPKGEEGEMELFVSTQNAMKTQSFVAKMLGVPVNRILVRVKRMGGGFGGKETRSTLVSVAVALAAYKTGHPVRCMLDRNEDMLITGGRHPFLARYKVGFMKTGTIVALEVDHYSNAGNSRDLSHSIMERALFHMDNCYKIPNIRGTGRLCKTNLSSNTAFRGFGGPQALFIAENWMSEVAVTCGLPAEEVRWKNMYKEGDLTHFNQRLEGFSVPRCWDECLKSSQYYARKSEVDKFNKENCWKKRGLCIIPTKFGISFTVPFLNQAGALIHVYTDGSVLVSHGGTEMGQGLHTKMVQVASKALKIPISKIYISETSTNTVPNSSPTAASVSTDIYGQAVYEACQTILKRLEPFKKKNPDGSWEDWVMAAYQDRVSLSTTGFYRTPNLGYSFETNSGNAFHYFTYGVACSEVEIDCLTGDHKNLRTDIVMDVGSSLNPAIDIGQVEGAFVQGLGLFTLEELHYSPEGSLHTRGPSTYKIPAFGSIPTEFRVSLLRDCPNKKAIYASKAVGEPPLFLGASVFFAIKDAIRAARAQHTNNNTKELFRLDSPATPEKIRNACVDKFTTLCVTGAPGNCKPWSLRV

IC50	SMILES
21 nM	N#Cc1cc(-c2n[nH]c(-c3ccncc3)n2)ccn1 [TOPIROXOSTAT]
312 nM	N#Cc1ccccc1COc1ccc(NC(=O)c2ccncc2)cc1C#N
